Test results reported in patent US8263596B2, “Kinase inhibitors and method of treating cancer” (University Health Network, priority 2010, dated 2012).
Structures can show the parent of a compound that is named as a salt. Where two headings read alike, the source gives them in different places.

Key:
A549 lung cancer cells = format: cell-based; conditions: Homo sapiens, A549, 120 h, read-out: Cell Line GI50 Range A-549
SW620 colon cancer cells = format: cell-based; conditions: Homo sapiens, SW-620, 120 h, read-out: Cell Line GI50 Range SW-620
Aurora B = Aurora B (Homo sapiens, UniProt Q96GD4); assay: Aurora B inhibition assay (Z-Lyte); format: biochemical; conditions: read-out: IC50 Ranges Aurora B
Experimental: Aurora B inhibition was determined using the Z-Lyte assay kit from Invitrogen. […] The % inhibition values were determined according to the manufacturer's directions and IC50 values were obtained using a non-linear 4 point logistic curve fit (XLfit4, IDBS)

Aurora A = target: T1, Aurora A (Homo sapiens, UniProt O14965); assay: Aurora A inhibition assay (Z-Lyte); format: biochemical
T1 sequence (O14965 1-403): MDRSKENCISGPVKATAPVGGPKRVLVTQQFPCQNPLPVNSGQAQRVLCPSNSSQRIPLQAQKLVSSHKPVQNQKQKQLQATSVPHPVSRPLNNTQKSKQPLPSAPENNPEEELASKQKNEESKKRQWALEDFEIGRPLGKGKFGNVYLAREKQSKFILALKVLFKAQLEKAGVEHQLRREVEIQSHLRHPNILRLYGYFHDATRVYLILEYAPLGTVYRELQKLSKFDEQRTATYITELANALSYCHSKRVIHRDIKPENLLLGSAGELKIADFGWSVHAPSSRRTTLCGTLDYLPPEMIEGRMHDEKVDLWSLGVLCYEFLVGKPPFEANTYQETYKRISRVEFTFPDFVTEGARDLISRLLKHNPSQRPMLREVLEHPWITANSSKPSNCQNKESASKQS

human PLK4 = target: T2, human PLK4 (Homo sapiens, UniProt O00444); assay: PLK4 inhibition assay (indirect ELISA); format: biochemical
T2 construct: amino terminal GST fusion of residues 1-391 of human PLK4; made in house; host or cells: E. coli
T2 sequence (O00444 1-391): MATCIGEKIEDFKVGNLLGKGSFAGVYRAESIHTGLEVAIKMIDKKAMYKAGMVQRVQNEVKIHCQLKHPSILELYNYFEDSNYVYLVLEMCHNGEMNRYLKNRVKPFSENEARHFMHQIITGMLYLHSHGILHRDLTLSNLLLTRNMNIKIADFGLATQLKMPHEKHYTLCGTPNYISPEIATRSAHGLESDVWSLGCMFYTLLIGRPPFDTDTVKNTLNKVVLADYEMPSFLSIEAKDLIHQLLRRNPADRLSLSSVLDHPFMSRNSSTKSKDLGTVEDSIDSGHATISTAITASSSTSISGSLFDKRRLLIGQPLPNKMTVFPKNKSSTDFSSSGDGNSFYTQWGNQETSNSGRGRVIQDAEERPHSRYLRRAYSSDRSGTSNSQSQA
Experimental: PLK4 activity was measured using an indirect ELISA detection system. […] The colourimetric reaction was allowed to continue for 5 minutes, followed by addition of stop solution (0.5 N sulphuric acid), and quantified by detection at 450 nm with either a monochromatic or filter based plate reader (Molecular Devices M5 or Beckman DTX880, respectively).
Compounds were pre-incubated in the presence of enzyme for 15 minutes prior to addition of ATP and the activity remaining quantified using the above described activity assay. […] The IC50 value was determined using a non-linear 4 point logistic curve fit (XLfit4, IDBS) with the formula; (A+(B/(1+((x/C)^D)))), where A=background value, B=range, C=inflection point, D=curve fit parameter.

Chain of Aurora B (Q96GD4 whole entry): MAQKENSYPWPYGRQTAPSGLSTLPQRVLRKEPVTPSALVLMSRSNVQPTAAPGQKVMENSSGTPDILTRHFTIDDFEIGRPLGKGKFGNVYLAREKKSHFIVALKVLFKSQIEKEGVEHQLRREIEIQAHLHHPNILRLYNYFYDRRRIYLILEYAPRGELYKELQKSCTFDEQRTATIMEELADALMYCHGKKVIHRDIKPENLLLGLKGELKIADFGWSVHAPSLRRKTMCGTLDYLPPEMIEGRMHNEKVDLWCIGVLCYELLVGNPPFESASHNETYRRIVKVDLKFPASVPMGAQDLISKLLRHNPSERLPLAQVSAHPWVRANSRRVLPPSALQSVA

SMILES	GI50 (A549 lung cancer cells)	GI50 (SW620 colon cancer cells)	IC50 (Aurora B)	IC50 (human PLK4; read-out: IC50 Ranges PLK4)	further results
O=C1Nc2ccccc2[C@]12CC2c1ccc2cn[nH]c2c1 (mixture of isomers) [Example A2, (1R*,2S*)-2-(1H-indazol-6-yl)spiro[cyclopropane-1,3′-indolin]-2′-one]	> 10000 nM	> 10000 nM			
COc1ccc2c(c1)[C@]1(CC1c1ccc3c(-c4ccc(N5CCN(C)CC5)nc4)n[nH]c3c1)C(=O)N2 (mixture of isomers) [Example A14, (1R*,2S*)-5′-Methoxy-2-(3-(6-(4-methylpiperazin-1-yl)pyridin-3-yl)-1H-indazol-6-yl)spiro[cyclopropane-1,3′-indolin]-2′-one dihydrochloride]	< 100 nM	< 100 nM			
CN1CCN(c2ccc(-c3n[nH]c4cc([C@@H]5C[C@@]56C(=O)Nc5ccccc56)ccc34)cn2)CC1 (racemic) [Example A18, (1R*,2S*)-2-(3-(6-(4-Methylpiperazin-1-yl)pyridin-3-yl)-1H-indazol-6-yl)spiro[cyclopropane-1,3′-indolin]-2′-one]			< 100 nM		IC50 (Aurora A): 100 to 1000 nM; IC50 (human PLK4): < 100 nM
COc1ccc2c(c1)[C@]1(C[C@H]1c1ccc3c(-c4ccc(N5CCN(C)CC5)cc4)n[nH]c3c1)C(=O)N2 (relative stereo) [Example A38, (1R*,2S*)-5′-Methoxy-2-(3-(4-(4-methylpiperazin-1-yl)phenyl)-1H-indazol-6-yl)spiro[cyclopropane-1,3′-indolin]-2′-one]		100 to 1000 nM	< 100 nM		
COc1ccc2c(c1)[C@]1(C[C@H]1c1ccc3c(-c4ccc(N5CCC(O)CC5)nc4)n[nH]c3c1)C(=O)N2 (relative stereo) [Example A117, (1R*,2S*)-2-(3-(6-(4-hydroxypiperidin-1-yl)pyridin-3-yl)-1H-indazol-6-yl)-5′-methoxyspiro[cyclopropane-1,3′-indolin]-2′-one 2,2,2-trifluoroacetate]	1000 to 10000 nM	> 10000 nM	100 to 1000 nM		
COc1ccc2c(c1)[C@]1(C[C@H]1c1ccc3c(-c4ccc(C5CCNCC5)cc4)n[nH]c3c1)C(=O)N2 (relative stereo) [Example A122, (1R*,2S*)-5′-methoxy-2-(3-(4-(piperidin-4-yl)phenyl)-1H-indazol-6-yl)spiro[cyclopropane-1,3′-indolin]-2′-one 2,2,2-trifluoroacetate]	< 100 nM	< 100 nM			
CCc1ccc2c(c1)[C@]1(C[C@H]1c1ccc3c(-c4ccc(N5CCN(C)CC5)cc4)n[nH]c3c1)C(=O)N2 (relative stereo) [Example A142, (1R*,2S*)-5′-ethyl-2-(3-(4-(4-methylpiperazin-1-yl)phenyl)-1H-indazol-6-yl)spiro[cyclopropane-1,3′-indolin]-2′-one 2,2,2-trifluoroacetate]					inhibition at 1 µM (Aurora A): < 50%
COc1ccc2c(c1)[C@]1(C[C@H]1c1ccc3c(-c4ccc(C(=O)N5CCN(C)CC5)cc4)n[nH]c3c1)C(=O)N2 (relative stereo) [Example A148, (1R*,2S*)-5′-methoxy-2-(3-(4-(4-methylpiperazine-1-carbonyl)phenyl)-1H-indazol-6-yl)spiro[cyclopropane-1,3′-indolin]-2′-one 2,2,2-trifluoroacetate]	100 to 1000 nM	1000 to 10000 nM	100 to 1000 nM	< 100 nM	
Cc1ccc2c(c1)[C@]1(C[C@H]1c1ccc3c(/C=C/c4ccc(CN(C)C)cc4)n[nH]c3c1)C(=O)N2 (relative stereo) [Example A169, (1R*,2S*)-(E)-2-(3-(4-((dimethylamino)methyl)styryl)-1H-indazol-6-yl)-5′-methylspiro[cyclopropane-1,3′-indolin]-2′-one 2,2,2-trifluoroacetate]	< 100 nM				
COc1ccc2c(c1)[C@]1(C[C@H]1c1ccc3c(/C=C/c4ccc(C(=O)N5CCN(C)CC5)cc4)n[nH]c3c1)C(=O)N2 (relative stereo) [Example A179, (1R*,2S*)-(E)-5′-methoxy-2-(3-(4-(4-methylpiperazine-1-carbonyl)styryl)-1H-indazol-6-yl)spiro[cyclopropane-1,3′-indolin]-2′-one 2,2,2-trifluoroacetate]			< 100 nM	< 100 nM	IC50 (Aurora A): < 100 nM
COCCN1C(=O)[C@@]2(C[C@H]2c2ccc3c(/C=C/c4ccc(CN(C)C)cc4)n[nH]c3c2)c2ccccc21 (relative stereo) [Example A180, (1R*,2S*)-(E)-2-(3-(4-((dimethylamino)methyl)styryl)-1H-indazol-6-yl)-1′-(2-methoxyethyl)spiro[cyclopropane-1,3′-indolin]-2′-one 2,2,2-trifluoroacetate]					IC50 (Aurora A): < 100 nM
O=C1Nc2ccc(F)cc2[C@]12C[C@H]2c1ccc2c(/C=C/c3ccc(N4CCOCC4)nc3)n[nH]c2c1 (relative stereo) [Example A207, (1R*,2S*)-5′-fluoro-2-(3-((E)-2-(6-morpholinopyridin-3-yl)vinyl)-1H-indazol-6-yl)spiro[cyclopropane-1,3′-indolin]-2′-one 2,2,2-trifluoroacetate]			< 100 nM	< 100 nM	
CN1CCN(c2ccc(-c3n[nH]c4cc([C@@H]5C[C@@]56C(=O)Nc5ccc(OC(F)F)cc56)ccc34)cn2)CC1 (relative stereo) [Example A209, (1R*,2S*)-5′-(difluoromethoxy)-2-(3-(6-(4-methylpiperazine-1-yl)pyridine-3-yl)-1H-indazol-6-yl)spiro[cyclopropane-1,3′-indolin]-2′-one 2,2,2-trifluoro acetate]			< 100 nM	< 100 nM	
COc1ccc2c(c1)[C@]1(C[C@H]1c1ccc3c(/C=C/c4ccc(N5CCOCC5)nc4)n[nH]c3c1)C(=O)N2 (relative stereo) [Example A213, (1R*,2S*)-5′-methoxy-2-(3-((E)-2-(6-morpholinopyridin-3-yl)vinyl)-1H-indazol-6-yl)spiro[cyclopropane-1,3′-indolin]-2′-one 2,2,2-trifluoroacetate]			< 100 nM	< 100 nM	
COc1ccc2c(c1)[C@]1(CC1c1ccc3c(/C=C/c4cc(F)c(CN(C)C)c(F)c4)n[nH]c3c1)C(=O)N2 (stereo in doubt) [Example A215, (1R*,2S*)-(E)-2-(3-(4-((dimethylamino)methyl)-3,5-difluorostyryl)-1H-indazol-6-yl)-5′-methoxyspiro[cyclopropane-1,3′-indolin]-2′-one 2,2,2-trifluoro acetate]			< 100 nM	< 100 nM	
COc1ccc2c(c1)C1(CC1c1ccc3c(I)n[nH]c3c1)C(=O)N2 (stereo not drawn) [Example A6, (1R*,2S*)- and (1R*,2R*)-2-(3-iodo-1H-indazol-6-yl)-5-methoxyspiro-[cyclopropane-1,3′-indolin]-2′-one]			100 to 1000 nM	< 100 nM	
CN1C(=O)[C@@]2(C[C@H]2c2ccc3c(/C=C/c4ccc(N5CCNCC5)cc4)n[nH]c3c2)c2ccccc21 [Example A90, (1R,2S)-(E)-1′-methyl-2-(3-(4-(piperazin-1-yl)styryl)-1H-indazol-6-yl)spiro[cyclopropane-1,3′-indolin]-2′-one hydrochloride]	< 100 nM	< 100 nM			
COc1ccc2c(c1)[C@]1(C[C@H]1c1ccc3c(/C=C/c4ccc(CN5CCOCC5)s4)n[nH]c3c1)C(=O)N2 [Example A105, (1R,2S)-5′-methoxy-2-(3-((E)-2-(5-(morpholinomethyl)thiophen-2-yl)vinyl)-1H-indazol-6-yl)spiro[cyclopropane-1,3′-indolin]-2′-one hydrochloride]	< 100 nM	< 100 nM			
COc1ccc2c(c1)[C@]1(C[C@H]1c1ccc3c(-c4ccc(N5CCC(N(C)C)CC5)cc4)n[nH]c3c1)C(=O)N2 [Example A120, (1R,2S)-2-(3-(4-(4-(dimethylamino)piperidin-1-yl)phenyl)-1H-indazol-6-yl)-5′-methoxyspiro[cyclopropane-1,3′-indolin]-2′-one 2,2,2-trifluoroacetate]			< 100 nM	< 100 nM	
COc1ccc2c(c1)[C@]1(C[C@H]1c1ccc3c(/C=C/c4cccc(CN5CCOCC5)c4)n[nH]c3c1)C(=O)N2 [Example A132, (1R,2S)-5′-methoxy-2-(3-(3-(morpholinomethyl)styryl)-1H-indazol-6-yl)spiro[cyclopropane-1,3′-indolin]-2′-one 2,2,2-trifluoroacetate]					IC50 (Aurora A): 100 to 1000 nM
COc1ccc2c(c1)[C@]1(C[C@H]1c1ccc3c(/C=C/c4cccc(CN(C)C)c4)n[nH]c3c1)C(=O)N2 [Example A134, (1R,2S)-2-(3-(3-((dimethylamino)methyl)styryl)-1H-indazol-6-yl)-5′-methoxyspiro[cyclopropane-1,3′-indolin]-2′-one 2,2,2-trifluoroacetate]					IC50 (Aurora A): 100 to 1000 nM
